# Test results from ChEMBL document CHEMBL1140081 (J Med Chem, 2008).
# pIC50: −log10 of the molar value.
# How the values were obtained:
# [1] = test system: Human immunodeficiency virus 1; assay: Antiviral activity against HIV1 3B in human MT4 cells in presence of 50% normal human serum; format: functional; conditions: Human immunodeficiency virus 1, 3B, MT4; read-out: CIC95
# [2] = test system: Human immunodeficiency virus 1; assay: Antiviral activity against HIV1 3B in human MT4 cells in presence of 10% heat-inactivated fetal bovine serum; conditions: Human immunodeficiency virus 1, 3B, read-out: CIC95
# [3] = biological target: Human immunodeficiency virus type 1 integrase (Human immunodeficiency virus 1, UniProt Q7ZJM1); assay: Inhibition of HIV1 recombinant integrase strand transfer activity
# [4] = test system: Human immunodeficiency virus 1; assay: Antiviral activity against HIV1 with integrase T66I/L74M/V151I mutation by single cycle infectivity assay in presence of 10%FBS; format: functional
# [5] = AUC in dog at 10 mg/kg, po; format: ADME, organism-based, Canis lupus familiaris; parameters: dose 10 mg/kg, route oral; conditions: plasma
# [6] = Volume of distribution in Sprague-Dawley rat at 3 mg/kg, iv; format: ADME, organism-based; parameters: dose 3 mg/kg, route intravenous; conditions: in vivo
# Cytochrome P450 1A2 = biological target: T1, Cytochrome P450 1A2 (Homo sapiens, UniProt P05177); assay: Inhibition of CYP1A2; format: ADME
# T1 sequence (P05177 whole entry): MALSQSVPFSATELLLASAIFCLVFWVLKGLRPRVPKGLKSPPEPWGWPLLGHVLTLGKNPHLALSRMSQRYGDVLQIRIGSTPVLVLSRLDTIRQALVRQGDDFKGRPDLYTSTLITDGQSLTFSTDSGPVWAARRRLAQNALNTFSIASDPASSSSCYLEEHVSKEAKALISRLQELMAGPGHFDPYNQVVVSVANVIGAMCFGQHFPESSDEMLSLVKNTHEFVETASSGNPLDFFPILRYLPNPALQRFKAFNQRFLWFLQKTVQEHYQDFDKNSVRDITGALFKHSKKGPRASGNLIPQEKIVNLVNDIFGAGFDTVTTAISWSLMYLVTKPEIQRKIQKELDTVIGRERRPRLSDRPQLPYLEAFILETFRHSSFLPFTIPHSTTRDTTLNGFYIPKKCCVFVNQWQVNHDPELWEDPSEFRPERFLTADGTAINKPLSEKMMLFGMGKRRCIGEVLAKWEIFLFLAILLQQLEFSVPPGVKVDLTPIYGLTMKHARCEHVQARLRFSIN
# [7] = Cmax in dog at 2 mg/kg, po; format: ADME, organism-based, Canis lupus familiaris; parameters: dose 2 mg/kg, route oral; conditions: in vivo
# [8] = AUC in rhesus monkey at 10 mg/kg, po; format: ADME, organism-based, Macaca mulatta; parameters: dose 10 mg/kg, route oral; conditions: plasma
# [9] = Plasma clearance in Sprague-Dawley rat at 3 mg/kg, iv; format: ADME, organism-based; parameters: dose 3 mg/kg, route intravenous
# [10] = Inhibition of HIV ribonuclease H; parameters: species or system Human immunodeficiency virus
# [11] = Oral bioavailability in po dosed dog; format: ADME, organism-based, Canis lupus familiaris; conditions: in vivo
# [12] = Volume of distribution in rhesus monkey at 1 mg/kg, iv; conditions: in vivo
# [13] = test system: Human immunodeficiency virus 1; assay: Antiviral activity against HIV1 with integrase T125K/F121Y mutation by single cycle infectivity assay in presence of 10%FBS; format: functional
# DNA polymerase beta = DNA polymerase beta (Homo sapiens, UniProt P06746); assay: Inhibition of human DNA polymerase beta
# [14] = Cmax in dog at 10 mg/kg, po; format: ADME, organism-based, Canis lupus familiaris; parameters: dose 10 mg/kg, route oral; conditions: in vivo
# [15] = Plasma clearance in rhesus monkey at 1 mg/kg, iv; format: ADME, organism-based, Macaca mulatta; parameters: dose 1 mg/kg, route intravenous
# [16] = Oral bioavailability in po dosed Sprague-Dawley rat; format: ADME, organism-based; conditions: in vivo
# [17] = Plasma clearance in dog at 1 mg/kg, iv; format: ADME, organism-based, Canis lupus familiaris; parameters: dose 1 mg/kg, route intravenous
# Cytochrome P450 2D6 = Cytochrome P450 2D6 (Homo sapiens, UniProt P10635); assay: Inhibition of CYP2D6; format: ADME
# Cytochrome P450 2C9 = Cytochrome P450 2C9 (Homo sapiens, UniProt P11712); assay: Inhibition of CYP2C9; format: ADME
# [18] = test system: Human immunodeficiency virus 1; assay: Antiviral activity against HIV1 with integrase T66I/S153Y mutation by single cycle infectivity assay in presence of 10%FBS; format: functional
# [19] = AUC in Sprague-Dawley rat at 3 mg/kg, po; format: ADME, organism-based; parameters: dose 3 mg/kg, route oral; conditions: plasma
# [20] = Oral bioavailability in po dosed rhesus monkey; format: ADME, organism-based, Macaca mulatta; conditions: in vivo
# [21] = Terminal half life in Sprague-Dawley rat at 3 mg/kg, iv; format: ADME, organism-based; parameters: dose 3 mg/kg, route intravenous; conditions: in vivo, read-out: beta t1/2 (converted)
# [22] = Inhibition of HCV polymerase; parameters: species or system Hepacivirus hominis
# [23] = test system: Human immunodeficiency virus 1; assay: Antiviral activity against HIV1 with integrase T66I/M154 mutation by single cycle infectivity assay in presence of 10%FBS; format: functional
# [24] = Cmax in po dosed rhesus monkey; format: ADME, organism-based, Macaca mulatta; parameters: route oral; conditions: in vivo
# Cytochrome P450 3A4 = Cytochrome P450 3A4 (Homo sapiens, UniProt P08684); assay: Inhibition of CYP3A4; format: ADME
# [25] = Inhibition of human DNA polymerase gamma
# [26] = Terminal half life in dog at 1 mg/kg, iv; format: ADME, organism-based, Canis lupus familiaris; parameters: dose 1 mg/kg, route intravenous; conditions: in vivo, read-out: beta t1/2 (converted)
# [27] = Volume of distribution in dog at 1 mg/kg, iv; format: ADME, organism-based, Canis lupus familiaris; parameters: dose 1 mg/kg, route intravenous; conditions: in vivo
# [28] = test system: Human immunodeficiency virus 1; assay: Antiviral activity against HIV1 with integrase N155S mutation by single cycle infectivity assay in presence of 10%FBS; format: functional
# [29] = Cmax in Sprague-Dawley rat at 3 mg/kg, po; format: ADME, organism-based; parameters: dose 3 mg/kg, route oral; conditions: in vivo
# [30] = Inhibition of HIV reverse transcriptase; parameters: species or system Human immunodeficiency virus
# [31] = Terminal half life in rhesus monkey at 1 mg/kg, iv; format: ADME, organism-based, Macaca mulatta; parameters: dose 1 mg/kg, route intravenous; conditions: in vivo, read-out: beta t1/2 (converted)
# [32] = Terminal half life in po dosed rhesus monkey; format: ADME, organism-based, Macaca mulatta; conditions: in vivo, read-out: beta t1/2 (converted)
# [33] = Inhibition of human DNA polymerase alpha
# [34] = AUC in dog at 2 mg/kg, po; format: ADME, organism-based, Canis lupus familiaris; parameters: dose 2 mg/kg, route oral; conditions: plasma
# [35] = Protein binding in rhesus monkey plasma; format: ADME, cell-free, Macaca mulatta; conditions: read-out: PPB (converted)
# [36] = Cmax in po dosed Sprague-Dawley rat; format: ADME, organism-based; parameters: route oral; conditions: in vivo
# [37] = Protein binding in Sprague-Dawley rat plasma; format: ADME, cell-free; conditions: read-out: PPB (converted)
# [38] = Protein binding in dog plasma; format: ADME, cell-free, Canis lupus familiaris; conditions: read-out: PPB (converted)
# [39] = Protein binding in human plasma; format: ADME, cell-free; conditions: read-out: PPB (converted)
# Sequence of Human immunodeficiency virus type 1 integrase (Q7ZJM1 whole entry): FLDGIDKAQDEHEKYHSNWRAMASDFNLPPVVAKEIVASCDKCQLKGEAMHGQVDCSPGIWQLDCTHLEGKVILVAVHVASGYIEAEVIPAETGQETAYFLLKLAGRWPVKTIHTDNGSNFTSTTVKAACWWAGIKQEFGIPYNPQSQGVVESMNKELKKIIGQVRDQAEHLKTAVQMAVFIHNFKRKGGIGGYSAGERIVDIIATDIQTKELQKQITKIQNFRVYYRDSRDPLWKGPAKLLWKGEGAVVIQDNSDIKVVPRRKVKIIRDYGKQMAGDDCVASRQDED
# Sequence of Cytochrome P450 2C9 (P11712 whole entry): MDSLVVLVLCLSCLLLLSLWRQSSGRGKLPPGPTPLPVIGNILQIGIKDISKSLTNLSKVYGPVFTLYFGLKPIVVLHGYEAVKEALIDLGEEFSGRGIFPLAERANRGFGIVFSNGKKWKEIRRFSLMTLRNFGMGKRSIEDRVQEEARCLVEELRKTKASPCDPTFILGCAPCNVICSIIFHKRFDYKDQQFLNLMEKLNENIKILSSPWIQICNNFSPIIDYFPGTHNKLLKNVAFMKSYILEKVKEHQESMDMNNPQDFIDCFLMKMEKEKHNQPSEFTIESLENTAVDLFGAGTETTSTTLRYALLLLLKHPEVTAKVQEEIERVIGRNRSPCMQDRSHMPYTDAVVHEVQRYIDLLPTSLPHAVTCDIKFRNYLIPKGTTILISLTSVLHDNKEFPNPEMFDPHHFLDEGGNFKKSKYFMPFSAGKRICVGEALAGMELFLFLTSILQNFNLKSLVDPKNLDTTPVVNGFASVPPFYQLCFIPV
# Sequence of Cytochrome P450 3A4 (P08684 whole entry): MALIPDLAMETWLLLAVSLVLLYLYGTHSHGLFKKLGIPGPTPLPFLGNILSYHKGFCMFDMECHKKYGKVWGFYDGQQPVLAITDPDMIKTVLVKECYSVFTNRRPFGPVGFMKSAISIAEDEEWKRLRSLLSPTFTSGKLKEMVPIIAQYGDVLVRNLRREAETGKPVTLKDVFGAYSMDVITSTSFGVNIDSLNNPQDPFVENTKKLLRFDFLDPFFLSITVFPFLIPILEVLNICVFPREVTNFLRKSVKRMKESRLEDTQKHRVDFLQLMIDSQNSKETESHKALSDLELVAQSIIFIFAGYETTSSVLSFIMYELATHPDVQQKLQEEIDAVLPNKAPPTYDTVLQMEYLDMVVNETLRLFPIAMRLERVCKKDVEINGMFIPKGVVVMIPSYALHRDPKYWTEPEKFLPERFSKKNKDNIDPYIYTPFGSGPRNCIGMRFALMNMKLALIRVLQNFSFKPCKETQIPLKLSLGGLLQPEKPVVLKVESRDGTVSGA
# Sequence of Cytochrome P450 2D6 (P10635 whole entry): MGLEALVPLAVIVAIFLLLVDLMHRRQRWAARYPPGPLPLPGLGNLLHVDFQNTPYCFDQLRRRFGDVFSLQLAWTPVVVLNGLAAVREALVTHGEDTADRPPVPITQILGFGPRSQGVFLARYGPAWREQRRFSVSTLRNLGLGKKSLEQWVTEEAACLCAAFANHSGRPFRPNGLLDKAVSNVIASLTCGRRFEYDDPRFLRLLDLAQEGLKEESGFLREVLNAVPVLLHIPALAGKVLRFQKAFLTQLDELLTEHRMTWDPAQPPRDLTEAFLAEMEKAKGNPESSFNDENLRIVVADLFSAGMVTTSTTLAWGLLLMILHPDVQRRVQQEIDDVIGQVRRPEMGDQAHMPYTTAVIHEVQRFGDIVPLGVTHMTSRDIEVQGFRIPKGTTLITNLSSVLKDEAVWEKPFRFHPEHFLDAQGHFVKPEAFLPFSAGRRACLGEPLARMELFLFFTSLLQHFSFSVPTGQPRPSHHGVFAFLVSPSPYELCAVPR
smiles,measurement,setting,value
CN1CCOCC1c1nc(C(=O)NCc2ccc(F)cc2)c(O)c(=O)n1C (stereo not drawn),IC95,[1],0.1 µM
same,IC95,[2],0.06 µM
Cn1c(C(C)(C)NC(=O)c2ccccn2)nc(C(=O)NCc2ccc(F)cc2)c(O)c1=O,pIC50,[3],7.70
same,IC95,[1],1 µM
same,IC95,[2],0.125 µM
Cc1nnc(C(=O)NC(C)(C)c2nc(C(=O)NCc3ccc(F)cc3)c(O)c(=O)n2C)o1,Activity,[4],6%
same,AUC,[5],21 µM·h
same,Vd,[6],2 L/kg
same,pIC50,Cytochrome P450 1A2,< 4.30
same,Cmax,[7],3000 nM
same,AUC,[8],1.8 µM·h
same,clearance,[9],39 mL/min/kg
same,pIC50,[10],< 4.30
same,bioavailability,[11],45%
same,Vd,[12],1.2 L/kg
same,Activity,[13],8%
same,pIC50,DNA polymerase beta,< 4.30
same,IC95,[1],0.031 µM
same,Cmax,[14],8 µM
same,clearance,[15],18 mL/min/kg
same,bioavailability,[16],37%
same,clearance,[17],6 mL/min/kg
same,pIC50,Cytochrome P450 2D6,< 4.30
same,pIC50,Cytochrome P450 2C9,< 4.30
same,Activity,[18],1%
same,AUC,[19],1 µM·h
same,bioavailability,[20],8%
same,half-life,[21],120 min
same,pIC50,[22],< 4.30
same,Activity,[23],1%
same,Cmax,[24],300 nM
same,pIC50,Cytochrome P450 3A4,< 4.30
same,pIC50,[25],< 4.30
same,half-life,[26],660 min
same,Vd,[27],0.9 L/kg
same,Activity,[28],10%
same,Cmax,[29],1200 nM
same,pIC50,[30],< 4.30
same,half-life,[31],240 min
same,half-life,[32],420 min
same,pIC50,[33],< 4.30
same,IC95,[2],0.019 µM
same,AUC,[34],7 µM·h
Cc1nnc(C(=O)NC(C)(C)c2nc(C(=O)NCc3ccc(F)cc3)c([O-])c(=O)n2C)o1.[Na+],fraction unbound,[35],0.85
same,AUC,[19],1.4 µM·h
same,Cmax,[36],1000 nM
same,fraction unbound,[37],0.74
same,fraction unbound,[38],0.71
same,fraction unbound,[39],0.83
Cn1c(C(C)(C)NC(=O)c2ncccn2)nc(C(=O)NCc2ccc(F)cc2)c(O)c1=O,pIC50,[3],8.15
same,IC95,[1],0.05 µM
same,IC95,[2],0.02 µM
CN(C)C1(c2nc(C(=O)NCc3ccc(F)cc3)c(O)c(=O)n2C)CCOCC1,pIC50,[3],8.70
same,IC95,[1],1 µM
same,IC95,[2],0.25 µM
Cn1c(C(C)(C)NC(=O)c2c[nH]cn2)nc(C(=O)NCc2ccc(F)cc2)c(O)c1=O,pIC50,[3],8.22
same,IC95,[1],0.25 µM
same,IC95,[2],0.25 µM
